Test results taken from the CheMixHub ionic liquid set.

Assay: xn = mol fraction of the nth substance listed

CS(=O)(=O)[O-].C[N+](C)(CCO)CCO + CCO
viscosity [mPa·s], 101 kPa
Conditions	x1 = 0.099	x1 = 0.2	x1 = 0.2984	x1 = 0.4	x1 = 0.5005	x1 = 0.6011	x1 = 0.7008	x1 = 0.7993	x1 = 0.8954	x1 = 1
298.15 K	3.21	8.15	18.5	39.7	80.7	176	319	556	950	1495
303.15 K	2.89	7.02	15.54	32.2	63.3	133.2	236	399	664	1021
308.15 K	2.61	6.13	13.16	26.5	50.5	92.7	178	293	476	716
313.15 K	2.32	5.38	11.4	22.1	41	73.2	136.8	221	350	513
318.15 K	2.13	4.76	9.92	18.6	33.7	58.6	106.9	169	262	378
323.15 K	1.9	4.24	8.58	15.85	28	47.6	76.5	132.1	201	282

OCCO + CCOS(=O)(=O)[O-].CC[n+]1ccn(C)c1
100 kPa, x1 = 1
Conditions	viscosity [mPa·s]
298.15 K	16.8
303.15 K	13.8

[N-]=C=S.[NH4+] + CCOS(=O)(=O)[O-].CC[n+]1ccn(C)c1
101 kPa
Conditions	electrical conductivity [S/m]	viscosity [mPa·s]
298.15 K, x1 = 0.0235	0.373	103.1
298.15 K, x1 = 0.3025	0.285	–
303.15 K, x1 = 0.565	0.375	172.5
308.15 K, x1 = 0.3025	0.439	129.6
308.15 K, x1 = 0.4042	0.436	140.9
313.15 K, x1 = 0.5997	0.59	–
318.15 K, x1 = 0.5205	0.656	86.9
318.15 K, x1 = 0.565	0.728	85.3
323.15 K, x1 = 0.565	0.868	69.75
333.15 K, x1 = 0.0235	–	26.54
333.15 K, x1 = 0.3025	–	50.29
333.15 K, x1 = 0.4042	–	53.18
333.15 K, x1 = 0.5997	–	47.67

O=C([O-])CC(O)(CC(=O)[O-])C(=O)[O-].[K+].[K+].[K+] + CCOS(=O)(=O)[O-].CC[n+]1ccn(C)c1 + O
viscosity [mPa·s], 101.3 kPa
Conditions	293.15 K	298.15 K	303.15 K	308.15 K	313.15 K
x1 = 0.0001822, x2 = 0.001795	1.082	0.969	0.854	0.76	0.688
x1 = 0.0001842, x2 = 0.002697	1.117	0.997	0.886	0.798	0.719
x1 = 0.0001964, x2 = 0	1.012	0.9	0.806	0.73	0.654
x1 = 0.0002632, x2 = 0.003588	1.149	1.029	0.912	0.824	0.74
x1 = 0.0005421, x2 = 0	1.019	0.907	0.813	0.737	0.661
x1 = 0.0005539, x2 = 0.001794	1.091	0.978	0.863	0.769	0.697
x1 = 0.0005561, x2 = 0.002696	1.127	1.007	0.896	0.808	0.729
x1 = 0.0005675, x2 = 0.003587	1.157	1.037	0.921	0.832	0.749
x1 = 0.0008894, x2 = 0	1.026	0.914	0.82	0.744	0.668
x1 = 0.0009179, x2 = 0.001794	1.099	0.986	0.871	0.776	0.704
x1 = 0.0009314, x2 = 0.002695	1.135	1.015	0.904	0.816	0.737
x1 = 0.0009355, x2 = 0.003586	1.166	1.046	0.929	0.841	0.757
x1 = 0.00126, x2 = 0	1.032	0.92	0.826	0.75	0.674
x1 = 0.001287, x2 = 0.001793	1.106	0.993	0.878	0.783	0.712
x1 = 0.001299, x2 = 0.002694	1.143	1.023	0.912	0.824	0.745
x1 = 0.001316, x2 = 0.003585	1.174	1.054	0.937	0.849	0.765
x1 = 0.001616, x2 = 0	1.038	0.926	0.832	0.756	0.68
x1 = 0.001647, x2 = 0.001792	1.113	1	0.884	0.79	0.719
x1 = 0.001665, x2 = 0.002693	1.15	1.03	0.92	0.831	0.753
x1 = 0.001686, x2 = 0.003583	1.181	1.061	0.944	0.856	0.773
x1 = 0.001985, x2 = 0	1.044	0.932	0.838	0.762	0.686
x1 = 0.002026, x2 = 0.002692	1.158	1.038	0.926	0.839	0.759
x1 = 0.002032, x2 = 0.001792	1.12	1.007	0.892	0.798	0.725
x1 = 0.002072, x2 = 0.003582	1.19	1.07	0.954	0.865	0.78

CCCCn1cc[n+](C)c1C.O=S(=O)([N-]S(=O)(=O)C(F)(F)F)C(F)(F)F + CC[N+](C)(CC)CCOC.O=S(=O)([N-]S(=O)(=O)C(F)(F)F)C(F)(F)F
100 kPa, x2 = 0
Conditions	electrical conductivity [S/m]
298.15 K	0.237
308.15 K	0.379
323.15 K	0.665
328.15 K	0.777

OCCO + CC[n+]1ccn(C)c1.F[B-](F)(F)F
viscosity [mPa·s]
Conditions	293.15 K	298.15 K	323.15 K	333.15 K	343.15 K
100 kPa, x1 = 1	21.4	17.4	7.12	–	4.1
101 kPa, x2 = 0	–	–	–	5.19	–
